{
  "source": "patent US12709645B2",
  "about": "“Targeting gene amplification in cancer using triplex formation as a therapeutic strategy” (Yale University, priority 2018, dated 2026)",
  "key": {"[1]": {"tested_on": "BT474 cells", "assay": "Flow cytometry of phosphorylated ATM", "assay_type": "cell-based, human", "conditions": "24 h", "procedure": "Flow Cytometry. BT474 cells were collected 24 h following treatment with either MIX24 HER2-205. After washing with PBS, cells were incubated with 1% paraformaldehyde for 15 minutes on ice. Cells were then fixed with cold 70% ethanol at −20° C. for 2 h or kept for up to 2 weeks until further analysis. Cells were centrifuged and rinsed with PBS, blocked with PBST buffer (1% w/v bovine serum albumin and 0.2% v/v Triton X-100 in PBS) for 15 minutes on ice, followed by another PBS rinse. Cells were first incubated with anti-phospho-ATM (S1981, EMD Millipore) in PBST at 1:100 dilution for 1 h at room temperature. Cells were rinsed with PBST and incubated with anti-rabbit IgG Fab2 Alexa 488 (Molecular Probes) at 1:100 dilution at room temperature for 1 h, and then rinsed with PBST. Acquisition of labeled cells and analysis of data was completed using a flow cytometer (FACS Calibur) and FlowJo software respectively."}, "[2]": {"tested_on": "PE01 and SKOV3 cells", "assay": "Immunofluorescence of γH2AX foci in ovarian cancer cells", "assay_type": "cell-based, human", "conditions": "24 h", "procedure": "(§1) Immunofluorescence. Cells were seeded onto UV-irradiated coverslips and were treated for 24 h with HER2-205, MIX24, or a mock transfection. Cells were processed 24 h post-transfection, fixed with 4% formaldehyde and then incubated with ice-cold 100% methanol for 20 minutes followed by a methanol and acetone solution (1:1) for 20 minutes each at −20° C. After washing with PBS, cells were blocked with blocking buffer (4% BSA, 0.2% Triton X-100 in PBS) for 30 minutes and then incubated overnight with the following primary antibodies: γH2AX (1:500; Cell Signaling or Millipore) and 53BP1 (1:100; Santa Cruz) in blocking buffer at 4° C. After three washes, cells were incubated with secondary antibodies Alexa 488 F(ab′)2 fragment goat anti-rabbit IgG or Alexa 568 F(ab′)2 fragment goat anti-mouse IgG (1:1000; Molecular Probes) for 1 h at room temperature. Cells were then mounted on microscope glass slides with anti-fade mounting media containing DAPI (Life Technologies), and pictures were taken with a Leica SP5 microscope. Immunofluorescence experiments were repeated for validation."}, "[3]": {"tested_on": "cell lines containing multiple copies of the HER2 gene", "assay": "Neutral comet assay in breast cancer cell lines", "assay_type": "cell-based, human", "conditions": "24 h after treatment", "procedure": "(§2) Cell Lines and Transfections. Human breast cancer cell lines were obtained from ATCC and routinely tested for mycoplasma. The human cell lines, MDA-MB-453, SKBR3, and BT474 are HER2-amplified breast cancer cell lines. BT20 and MCF7 cells are non-amplified breast cancer cell lines. MCF-10A is a non-tumorigenic breast epithelial cell line. PEO1 and SKOV3 are human ovarian cancer cell lines with HER2 gene amplification.\n(§3) Cells were seeded in six-well plates at a density of 2-4×10^5 cells per well the day before transfection. Cells were transfected with 2 μg of HER2-targeted TFO or MIX24 using Oligofectamine (Invitrogen) or Dharmafect-1 (Dharmacon) transfection reagent. Transfection was performed as per manufacturer's instructions. siRNA directed against p53, XPD and non-target controls (ON-Target plus SMARTpool reagents; (Dharmacon) were transfected into BT474 cells using Dharmafect-1 transfection reagent (Dharmacon) according to the manufacturers instructions. Western blot analysis was used to confirm knockdown of protein.\nComet Assay. […] Comets were visualized using an Axiovert 200 microscope and analyzed with Autocomet software. Approximately 100-200 comets were analyzed per experiment. Results were expressed as mean tail moment."}, "[4]": {"tested_on": "BT474 cells", "assay": "Apoptosis after XPD knockdown in BT474 cells (Western blot)", "assay_type": "cell-based, human", "conditions": "siRNA XPD knockdown", "procedure": "as §3\n(§4) Western blotting. Whole cell lysates were prepared from floating and adherent cells using RIPA buffer according to standard protocols. Total protein (30-50 μg per sample) was resolved by SDS-PAGE. Proteins were detected by a standard immunoblot protocol using the following primary antibodies: cleaved PARP, cleaved caspase 3, γH2AX, XPD, p53, HER2, pHER2 ([…]), HER3, pHER3 (Y1289), HER4, pHER4 (Y1284), EGFR, pEGFR (Y1068), Chk1, pChk1(S345), pChk2 (T68), and Chk2 (Cell Signaling Technology); pH2AX (tyrosine 142; EMD Millipore); tubulin (clone B-512; Sigma), and GAPDH-HRP (Proteintech). Each experiment was repeated with independent sample preparation a minimum of three times, and representative western blots are shown."}, "[5]": {"tested_on": "HER2-positive cell lines", "assay": "Annexin-V apoptosis analysis in breast cancer cell lines", "assay_type": "cell-based, human", "conditions": "24 h post TFO-treatment", "procedure": "as §2\n(§5) Apoptosis analysis. Cells (2−4×10^5) were seeded in six-well plates 24 h prior to treatment with MIX24, HER2-1 or HER2-205 (2 μg). Post-treatment analysis was performed using the Annexin V-FITC/PI apoptosis detection kit (BD Pharmingen) according to the manufacturers protocol. Apoptotic frequency was calculated as the combined percentage of early and late apoptotic cells. Data analysis was performed using Flow-Jo software."}, "[6]": {"tested_on": "SKOV3 ovarian cancer xenografts", "assay": "SKOV3 ovarian cancer subcutaneous xenograft model", "conditions": "HER2-205 20 mg/kg vs cisplatin 10 mg/kg, IP", "quoted_text": "To establish an ovarian cancer model, female BALB/c athymic nude mice were injected subcutaneously in the flank with 5×10^6 SKOV3 cells suspended in 100 μl equal volume of media and Matrigel. Mice bearing a tumor of about 100 mm^3 in volume were randomly divided into three treatment groups: vehicle (PBS), n=5; HER2-targeted TFO, HER2-205, n=5; and cisplatin, n=7. […] Tumor volumes were monitored and tumor tripling times were calculated as described above."}, "[7]": {"tested_on": "PE01 and SKOV3 cells", "assay": "Neutral comet assay in ovarian cancer cells", "assay_type": "cell-based, human", "procedure": "(§6) Comet Assay. Neutral cornet assays were performed 24 h post TFO-transfection as per the manufacturers instructions (Trevigen) with the adjustment of 3.5×10^5 cells/ml for each single cell suspension and 30 minutes electrophoresis. Comets were visualized using an Axiovert 200 microscope and analyzed with Autocomet software. Approximately 100-200 comets were analyzed per experiment. Results were expressed as mean tail moment."}, "[8]": {"tested_on": "PE01 and SKOV3 cells", "assay": "Monolayer growth survival assay in ovarian cancer cells", "assay_type": "cell-based, human", "conditions": "72 h after treatment", "procedure": "Survival Assay. Cell survival seas assayed by visualization of monolayer growth. Briefly, cells were plated at a defined density in 6 or 12-well dishes and treated with either transfection reagent alone (mock), MIX24, or HER2-205 as previously described. Monolayers were visualized by staining cells with crystal violet 72 h post-treatment."}, "[9]": {"tested_on": "BT474 human breast cancer tumors", "assay": "BT474 breast cancer subcutaneous xenograft model", "assay_type": "in vivo, athymic nude mice", "conditions": "for tumor growth relative to controls / tumor tripling time post-initial dose: 20 mg/kg IP, 3 doses over 7 days", "procedure": "Six to seven-week old female BALB/c athymic, ovariectomized nude mice (Harlan Sprague-Dawley) were implanted with 0.72 mg, 60-day release 17β-estradiol pellets (Innovative Research). […] Tumor volumes in each group were then monitored and mice were sacrificed when tumor volumes reached 1000 mm^3. Error bars represent standard error of the mean. Tumor tripling time was calculated as the time required for tumors to increase in volume […] over baseline (defined as tumor volume before administration of dose on first day of treatment). Harvested tumors were fixed in 10% neutral buffered formalin and processed by Yale Pathology Tissue Services for H&E, Caspase 3, HER2, and Ki67. Images were taken at 4× magnification."}, "[10]": {"tested_on": "BT474 cells", "assay": "Neutral comet assay in BT474 cells", "assay_type": "cell-based, human", "conditions": "24 hours post-treatment", "procedure": "as §3, §6"}, "[11]": {"tested_on": "PE01 and SKOV3 cells", "assay": "Apoptosis in ovarian cancer cells (Annexin V, cleaved PARP)", "assay_type": "cell-based, human", "conditions": "Annexin V 48 h post-treatment", "procedure": "as §4, §5"}, "[12]": {"tested_on": "BT474 cells", "assay": "Immunofluorescence of γH2AX and 53BP1 foci in BT474 cells", "assay_type": "cell-based, human", "procedure": "as §1"}, "[13]": {"tested_on": "HER2", "assay": "HER2 gene expression by RT-PCR", "assay_type": "cell-based, human", "conditions": "non-amplified and amplified breast cancer cell lines", "procedure": "Gene Expression. RNA was extracted from snap-frozen cells using the RNeasy Kit (Qiagen) per the manufacturers protocol. cDNA synthesis was carried out with 10 μg of RNA via reverse transcription reactions and the High-Capacity cDNA Reverse Transcription Kit (ThermoFisher Scientific). cDNA (10 ng) was then combined with TaqMan Universal PCR master mix (20 μl) (Applied Biosystem) and primers specific to HER2 (HER2, Hs01001580_m1, ThermoFisher Scientific) or the internal control, β-actin (Hs99999903_m1, ThermoFisher Scientific). qRT-PCR was performed in 96-well optical plates in triplicate for each sample. Briefly, reactions were performed at 50° C. for 2 minutes, followed by 95° C. for 10 minutes. Amplification of the target or control gene was carried out with 40 cycles of the two-step reaction, which included 95° C. for 15 seconds and 1 minute at 60° C. β-actin expression levels were used to normalize the difference between cDNA levels in different samples. Relative expression levels were calculated using the 2(-Delta Delta C(T)) method."}, "[14]": {"tested_on": "Chk1", "assay": "Western blot of DNA damage response protein phosphorylation", "assay_type": "cell-based, human", "conditions": "HER2-amplified vs normal copy number cells", "procedure": "as §4"}, "[15]": {"tested_on": "HER2", "assay": "Western blot of total HER2 protein and phosphorylation levels", "assay_type": "cell-based, human", "conditions": "HER2-positive cells compared to control samples", "procedure": "as §4"}, "[16]": {"conditions": "24 h after single dose 20 mg/kg"}},
  "data": [
    {"substance": "HER2-205: TFO binding a polypurine sequence in the HER2 coding region, 5′-GAGGAGGAGTGGGAGAATGGGGGG-3′ (DNA GAGGAGGAGTGGGAGAATGGGGGG; DNA, backbone not given here)", "values": [
      {"measurement": "pATM positive cells", "setting": "[1]", "value": "increase"},
      {"measurement": "γH2AX foci", "setting": "[2]", "value": "increased"},
      {"measurement": "DSBs as indicated by DNA tail moment", "setting": "[3]", "value": "significantly more DSBs"},
      {"measurement": "phosphorylation of Y142 in H2AX and activation of apoptosis", "setting": "[4]", "value": "requirement for XPD"},
      {"measurement": "percentage of apoptotic cells (Annexin-V)", "setting": "[5]", "value": "higher percentage of apoptotic cells than that with HER2-1"},
      {"measurement": "survival (tumors smaller than three times baseline) compared with cisplatin", "setting": "[6]; 3 doses", "value": "substantial survival advantage"},
      {"measurement": "average tumor volume smaller than in cisplatin-treated mice", "setting": "[6]; 3 doses once per week", "value": 49, "unit": "%"},
      {"measurement": "DNA tail moments", "setting": "[7]", "value": "increased"},
      {"measurement": "cell viability (monolayer growth)", "setting": "[8]", "value": "reduced cell viability"},
      {"measurement": "tumor growth relative to controls", "setting": "[9]", "value": "suppressed tumor growth to a significantly greater degree than the controls"},
      {"measurement": "tumor tripling time post-initial dose", "setting": "[9]", "value": "29 ± 5.7", "unit": "days"},
      {"measurement": "proliferation by Ki67 staining in tumor sections", "setting": "[9]; [16]", "value": "decreased proliferation"},
      {"measurement": "tumor cell apoptosis (cleaved caspase 3) in tumor sections", "setting": "[9]; [16]", "value": "Tumor cell apoptosis"},
      {"measurement": "reduction in tumor volumes compared to controls", "setting": "[9]; HER2-positive breast cancer xenografts", "value": 52, "unit": "%"},
      {"measurement": "DSBs as indicated by DNA tail moment", "setting": "[10]", "value": "significantly, more DSBs"},
      {"measurement": "apoptosis", "setting": "[11]", "value": "activated apoptosis"},
      {"measurement": "colocalization of γH2AX and 53BP1, percent of cells", "setting": "[12]; 24 h", "value": 49, "unit": "%"},
      {"measurement": "γH2AX and 53BP1 foci compared to MIX24", "setting": "[12]; 24 h post-treatment", "value": "substantially increased"},
      {"measurement": "HER2 gene expression", "setting": "[13]", "value": "not significantly affected"},
      {"measurement": "Chk1 phosphorylation at serine 345", "setting": "[14]", "value": "observed after HER2-205 treatment in the HER2-amplified cells and not in the cells with normal HER2 gene copy numbers"},
      {"measurement": "total and activated HER2 levels", "setting": "[15]", "value": "remain the same"}
    ]},
    {"substance": "HER2-5922-2: TFO targeting intron 2 of the HER2 gene, 5′-GGGAAAGAGGAGGGGGTGAGAGGAGTGGGG-3′ (triplex-forming oligonucleotide, chemistry not given here, further chemistry not given here)", "values": [
      {"measurement": "DSBs as indicated by DNA tail moment", "setting": "[10]", "value": "significantly, more DSBs"}
    ]},
    {"substance": "HER2-40118: TFO targeting intron 19 of the HER2 gene, 5′-GGGGGAAATAGGGAGGGTGGGG-3′ (triplex-forming oligonucleotide, chemistry not given here, further chemistry not given here)", "values": [
      {"measurement": "DSBs as indicated by DNA tail moment", "setting": "[10]", "value": "significantly, more DSBs"}
    ]},
    {"substance": "MIX24: control mixed-sequence oligonucleotide, 5′-AGTCAGTCAGTCAGTCAGTCAGTC-3′ (DNA AGTCAGTCAGTCAGTCAGTCAGTC; listed as DNA, chemistry not given here) [reference compound]", "values": [
      {"measurement": "tumor growth relative to controls", "setting": "[9]", "value": "no impact"},
      {"measurement": "tumor tripling time post-initial dose", "setting": "[9]", "value": "16.3 ± 6.6", "unit": "days"}
    ]}
  ]
}
